# Columns and labels:
# [1] = target: Beta-1 adrenergic receptor (Homo sapiens, UniProt P08588); test: DRUGMATRIX: Adrenergic beta1 radioligand binding (ligand: [125I] Cyanopindolol); format: cell membranes, CHO-K1, Membrane; settings: cho-k1; Not Active = under 50% inhibition at 10 µM
# [2] = target: T1, Calcitonin receptor (Homo sapiens, UniProt P30988); format: cell membranes, Membrane; settings: t47d; also: in other assays of this panel Not Active means under 50% inhibition at 10 µM
# T1 sequence (P30988 whole entry): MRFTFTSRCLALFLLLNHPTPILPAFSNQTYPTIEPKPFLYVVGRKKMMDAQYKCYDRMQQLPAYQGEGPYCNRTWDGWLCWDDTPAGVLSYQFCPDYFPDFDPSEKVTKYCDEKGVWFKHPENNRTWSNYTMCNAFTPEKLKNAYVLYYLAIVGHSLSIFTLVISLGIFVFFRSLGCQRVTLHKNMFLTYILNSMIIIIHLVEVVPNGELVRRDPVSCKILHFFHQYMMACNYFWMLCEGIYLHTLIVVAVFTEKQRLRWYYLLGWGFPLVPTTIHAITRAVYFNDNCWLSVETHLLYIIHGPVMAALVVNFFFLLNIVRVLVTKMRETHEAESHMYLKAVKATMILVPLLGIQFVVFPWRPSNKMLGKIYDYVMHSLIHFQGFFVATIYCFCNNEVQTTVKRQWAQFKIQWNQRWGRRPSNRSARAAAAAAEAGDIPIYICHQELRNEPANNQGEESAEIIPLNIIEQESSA
# [3] = target: Substance-P receptor (Homo sapiens, UniProt P25103); format: cell membranes, Membrane; settings: cho; also: in other assays of this panel Not Active means under 50% inhibition at 10 µM
# Chain of Substance-P receptor (P25103 whole entry): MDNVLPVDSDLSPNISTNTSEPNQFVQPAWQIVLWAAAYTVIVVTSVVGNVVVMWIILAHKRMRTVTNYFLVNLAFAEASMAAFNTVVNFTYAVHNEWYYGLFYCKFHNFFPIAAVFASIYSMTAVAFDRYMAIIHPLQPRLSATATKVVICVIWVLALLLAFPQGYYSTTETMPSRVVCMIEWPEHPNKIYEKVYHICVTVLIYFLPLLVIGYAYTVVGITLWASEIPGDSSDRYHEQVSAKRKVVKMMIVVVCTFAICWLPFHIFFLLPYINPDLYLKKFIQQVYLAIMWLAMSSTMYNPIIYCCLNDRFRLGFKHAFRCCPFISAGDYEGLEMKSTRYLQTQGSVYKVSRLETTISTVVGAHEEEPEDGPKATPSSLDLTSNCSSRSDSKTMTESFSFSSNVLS
# [4] = DRUGMATRIX: Tumor Necrosis Factor (TNF), Non-Selective radioligand binding (ligand: [125I] TNF-alpha); format: cell membranes, Membrane; settings: u-937; Not Active = under 50% inhibition at 10 µM
# [5] = DRUGMATRIX: Interleukin IL-1 radioligand binding (ligand: [125I] interleukin 1beta); format: cell membranes, Membrane; settings: nih3t3; Not Active = under 50% inhibition at 10 µM
# [6] = target: T2, Neuropeptide Y receptor type 2 (Homo sapiens, UniProt P49146); format: cell membranes, Membrane; settings: kan-ts; also: in other assays of this panel Not Active means under 50% inhibition at 10 µM
# T2 sequence (P49146 whole entry): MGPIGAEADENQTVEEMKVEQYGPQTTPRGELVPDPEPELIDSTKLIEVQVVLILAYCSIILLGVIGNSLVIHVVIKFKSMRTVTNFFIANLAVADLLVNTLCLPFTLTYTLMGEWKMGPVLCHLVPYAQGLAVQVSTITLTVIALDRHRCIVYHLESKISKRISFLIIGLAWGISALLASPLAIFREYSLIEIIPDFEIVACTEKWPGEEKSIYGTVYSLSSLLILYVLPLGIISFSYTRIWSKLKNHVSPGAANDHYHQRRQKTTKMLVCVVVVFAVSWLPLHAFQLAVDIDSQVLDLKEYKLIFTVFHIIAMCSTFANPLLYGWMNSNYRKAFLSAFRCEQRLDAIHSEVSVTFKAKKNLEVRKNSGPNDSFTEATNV
# [7] = DRUGMATRIX: Phosphodiesterase PDE4 enzyme inhibition (substrate: [3H]cAMP + cAMP); settings: u-937; Not Active = under 50% inhibition at 10 µM
# [8] = target: cGMP-specific 3',5'-cyclic phosphodiesterase (Homo sapiens, UniProt O76074); test: DRUGMATRIX: Phosphodiesterase PDE5 enzyme inhibition (substrate: [3H]cGMP + cGMP); format: tissue-based; settings: platelet; Not Active = under 50% inhibition at 10 µM
# [9] = target: Tyrosine-protein kinase Lck (Homo sapiens, UniProt P06239); test: DRUGMATRIX: Protein Tyrosine Kinase, LCK enzyme inhibition (substrate: Poly(Glu:Tyr)); format: cell-based, Insect cells; settings: Not Active = under 50% inhibition at 10 µM
# Chain of Tyrosine-protein kinase Lck (P06239 whole entry): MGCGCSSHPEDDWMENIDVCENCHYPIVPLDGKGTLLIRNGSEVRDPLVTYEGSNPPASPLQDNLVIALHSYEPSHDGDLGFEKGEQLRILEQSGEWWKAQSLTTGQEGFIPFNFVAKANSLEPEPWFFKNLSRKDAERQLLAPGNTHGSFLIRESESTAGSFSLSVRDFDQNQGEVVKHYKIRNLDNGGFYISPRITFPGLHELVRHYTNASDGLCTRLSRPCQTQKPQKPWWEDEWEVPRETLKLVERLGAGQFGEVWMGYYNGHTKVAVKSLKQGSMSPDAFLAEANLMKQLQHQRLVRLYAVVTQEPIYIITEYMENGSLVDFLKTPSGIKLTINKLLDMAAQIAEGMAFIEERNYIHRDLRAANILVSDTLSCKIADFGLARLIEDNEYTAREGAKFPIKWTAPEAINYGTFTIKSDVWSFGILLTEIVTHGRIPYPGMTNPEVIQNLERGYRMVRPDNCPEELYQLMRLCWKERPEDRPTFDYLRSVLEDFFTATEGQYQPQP
# Chain of Beta-1 adrenergic receptor (P08588 whole entry): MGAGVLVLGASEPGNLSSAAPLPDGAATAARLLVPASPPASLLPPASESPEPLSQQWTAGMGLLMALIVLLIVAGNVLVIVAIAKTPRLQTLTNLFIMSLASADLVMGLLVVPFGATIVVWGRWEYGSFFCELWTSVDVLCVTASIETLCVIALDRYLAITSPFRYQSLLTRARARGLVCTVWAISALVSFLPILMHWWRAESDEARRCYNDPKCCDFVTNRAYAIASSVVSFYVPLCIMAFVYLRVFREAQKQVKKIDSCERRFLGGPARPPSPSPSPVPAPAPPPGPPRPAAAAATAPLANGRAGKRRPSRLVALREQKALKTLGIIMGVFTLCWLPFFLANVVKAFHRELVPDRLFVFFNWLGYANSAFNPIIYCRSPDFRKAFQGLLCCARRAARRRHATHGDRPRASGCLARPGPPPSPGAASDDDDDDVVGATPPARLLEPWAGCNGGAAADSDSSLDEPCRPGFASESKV
Compound,IC50 [1],IC50 [2],IC50 [3],IC50 [4],Ki [4],IC50 [5],Ki [5],IC50 [6],IC50 [7],Ki [7],IC50 [8],IC50 ([9]; insect cells),Ki [1],Ki [2],Ki [3],Ki [6],Ki [8],Ki ([9]; insect cells),IC50 ([9]; read-out: IC50)
CCS(=O)(=O)CCn1c([N+](=O)[O-])cnc1C [TINIDAZOLE],Not Active,Not Active,Not Active,Not Active,Not Active,Not Active,Not Active,Not Active,Not Active,Not Active,Not Active,Not Active,,,,,,,
Nc1ccc(S(=O)(=O)Nc2nccs2)cc1 [SULFATHIAZOLE],Not Active,Not Active,Not Active,Not Active,Not Active,Not Active,Not Active,Not Active,Not Active,Not Active,Not Active,Not Active,,,,,,,
O=C(O)C(Cl)(Cl)Cl [TRICHLOROACETIC ACID],Not Active,Not Active,Not Active,Not Active,Not Active,Not Active,Not Active,Not Active,Not Active,Not Active,Not Active,Not Active,,,,,,,
C=C(C)[C@H]1Cc2c(ccc3c2O[C@@H]2COc4cc(OC)c(OC)cc4[C@@H]2C3=O)O1 [ROTENONE],Not Active,Not Active,Not Active,Not Active,Not Active,Not Active,Not Active,Not Active,Not Active,Not Active,Not Active,Not Active,,,,,,,
C#CCN(C)[C@H](C)Cc1ccccc1 [SELEGILINE],Not Active,Not Active,Not Active,Not Active,Not Active,Not Active,Not Active,Not Active,Not Active,Not Active,Not Active,Not Active,,,,,,,
THIMEROSAL,Not Active,Not Active,Not Active,Not Active,Not Active,Not Active,Not Active,Not Active,Not Active,Not Active,Not Active,Not Active,Not Active,Not Active,Not Active,Not Active,Not Active,Not Active,
CNS(=O)(=O)Cc1ccc2[nH]cc(CCN(C)C)c2c1,Not Active,Not Active,Not Active,Not Active,Not Active,Not Active,Not Active,Not Active,Not Active,Not Active,Not Active,Not Active,,,,,,,
C[C@]12CC[C@H]3[C@@H](CCC4=CC(=O)CC[C@@]43C)[C@@H]1CC[C@@H]2O [TESTOSTERONE],Not Active,Not Active,Not Active,Not Active,Not Active,Not Active,Not Active,Not Active,Not Active,Not Active,Not Active,Not Active,,,,,,,
C[C@@H]1C[C@H]2[C@@H]3CCC4=CC(=O)C=C[C@]4(C)C3=CC[C@]2(C)[C@H]1C(=O)CN1CCN(c2cc(N3CCCC3)nc(N3CCCC3)n2)CC1 [TIRILAZAD],Not Active,Not Active,Not Active,Not Active,Not Active,Not Active,Not Active,Not Active,Not Active,Not Active,Not Active,,,,,,,,15.8 µM
NC[C@H]1O[C@H](O[C@H]2[C@H](O)[C@@H](O[C@H]3O[C@H](CO)[C@@H](O)[C@H](N)[C@H]3O)[C@H](N)C[C@@H]2N)[C@H](N)C[C@@H]1O [TOBRAMYCIN],Not Active,Not Active,Not Active,Not Active,Not Active,Not Active,Not Active,Not Active,Not Active,Not Active,Not Active,Not Active,,,,,,,
CN[C@@H]1[C@H](O)[C@H](NC)[C@H]2O[C@@]3(O)C(=O)C[C@@H](C)O[C@H]3O[C@@H]2[C@H]1O [SPECTINOMYCIN],Not Active,Not Active,Not Active,Not Active,Not Active,Not Active,Not Active,Not Active,Not Active,Not Active,Not Active,Not Active,,,,,,,
CO[C@H]1C[C@@H]2CC[C@@H](C)[C@@](O)(O2)C(=O)C(=O)N2CCCC[C@H]2C(=O)O[C@H]([C@H](C)C[C@@H]2CC[C@@H](O)[C@H](OC)C2)CC(=O)[C@H](C)/C=C(\C)[C@@H](O)[C@@H](OC)C(=O)[C@H](C)C[C@H](C)/C=C/C=C/C=C/1C [SIROLIMUS],Not Active,Not Active,Not Active,Not Active,Not Active,Not Active,Not Active,Not Active,Not Active,Not Active,Not Active,Not Active,,,,,,,
O=P(O)(O)C(O)(Cc1cccnc1)P(=O)(O)O [RISEDRONIC ACID],Not Active,Not Active,Not Active,Not Active,Not Active,Not Active,Not Active,Not Active,Not Active,Not Active,Not Active,Not Active,,,,,,,
COc1ccc(CN2CCNCC2)c(OC)c1OC [TRIMETAZIDINE],Not Active,Not Active,Not Active,Not Active,Not Active,Not Active,Not Active,Not Active,Not Active,Not Active,Not Active,Not Active,,,,,,,

# — ChEMBL document CHEMBL1909046, “DrugMatrix in vitro pharmacology data”
